Results from patent US12364709B2, “Bioavailable poly amines” (AMINEX THERAPEUTICS, INC., priority 2016, dated 2025).

What was measured:
[1] = cited from earlier work
[2] = 3 h intravenous infusions; cited from earlier work
[3] = cited from earlier work; remark: listed apart in the source
[4] = Pharmacokinetic analysis of AMXT 1501 salt forms, single oral tablet dose; assay type: in vivo, beagle dogs
From the text: Following dose administration all the animals had serial blood collections. Table 18 provides pharmacokinetic data obtained using the various salt forms of AMXT 1501 following single PO dosing to dogs. In Table 18, Group 1 received the free base form of AMXT 1501, Group 2 received the dicholate salt of AMXT 1501, Group 3 received the phosphate salt form of AMXT 1501, and Group 4 received the dicaprate salt form of AMXT 1501. […] In Table 18, SD refers to standard deviation and CV % refers to coefficient of variability.

[5] = single PO dose 16.0 mg/kg (2 x 80 mg tablets), plasma AMXT 1501
[6] = single PO dose 16.0 mg/kg (2 x 80 mg tablets), plasma AMXT 1501, 16 mg/kg
[7] = single PO dose 16.0 mg/kg, plasma AMXT 1501, 16 mg/kg
[8] = single PO dose 16.0 mg/kg, t=24 hours, plasma AMXT 1501, 16 mg/kg

Q: What does the source list for `CCNCCCCNCCCCNCCCCNCC` [DEHSpm, N1,N14-diethylhomospermine]?
A: drug in plasma ([1]; 2-4 hrs. post-injection): not observed; objective response ([1]; solid tumor patients): None of the 15 patients

Q: With `N=C(N)NCCCCCCC(=O)NC(O)C(=O)NCCCCNCCCN` (stereo not shown) [deoxyspergualin] as the compound, how does the half-life [2] read?
A: Its half-life is 1.8 h.

Q: With `c1cc(CN2CCCNCCNCCCNCC2)ccc1CN1CCCNCCNCCCNCC1` [Mozobil] as the compound, how does the “clearance by” value ([3]; subcutaneous 40-360 μg/kg, healthy volunteers) read?
A: The value was ≤ 10 h.

Q: What about the Plasma half-life ([3]; subcutaneous) of the same compound?
A: The Plasma half-life was 3 h.

Q: For `CCCCCCCCCCCCCCCC(=O)NCCCC[C@@H](N)C(=O)NCCCNCCCCNCCCN` [AMXT 1501 free base], which “Tmax Median” value [4, 5] is on record?
A: Its value is 6.00 h.

Q: What about the “Tmax Min.” value [4, 5] of the same compound?
A: The value was 6.00 h.

Q: And the “Cmax Max.” value [4, 6]?
A: The value was 468 ng/mL.

Q: And the “Cmax Mean” value [4, 6]?
A: Its value is 250 ng/mL.

Q: What about the “Cmax Median” value [4, 6] of the same compound?
A: Its value is 250 ng/mL.

Q: What about the “Cmax Min.” value [4, 6] of the same compound?
A: Its value is 31.3 ng/mL.

Q: And the “Tmax Max.” value [4, 6]?
A: Its value is 12.0 h.

Q: And the “Tmax Mean” value [4, 6]?
A: The value was 8.00 h.

Q: And the “t1/2 Max.” value [4, 7]?
A: The value was 9.76 h.

Q: And the “t1/2 Mean” value [4, 7]?
A: Its value is 9.76 h.

Q: What about the “t1/2 Median” value [4, 7] of the same compound?
A: The value was 9.76 h.

Q: What about the “t1/2 Min.” value [4, 7] of the same compound?
A: Its value is 9.76 h.

Q: What about the “AUC0-t Max.” value [4, 8] of the same compound?
A: Its value is 8450 ng·h/mL.

Q: What about the “AUC0-t Mean” value [4, 8] of the same compound?
A: The value was 4710 ng·h/mL.

Q: What about the “AUC0-t Median” value [4, 8] of the same compound?
A: Its value is 5330 ng·h/mL.

Q: And the “AUC0-t Min.” value [4, 8]?
A: Its value is 363 ng·h/mL.

Q: What about the “inter-animal consistency of plasma AMXT 1501 levels” value ([4]; single oral delivery, FIGS. 5A-5D) of the same compound?
A: Its value is “variable drug levels”.
